# Assay results taken from US9499553B2 (CHUGAI SEIYAKU KABUSHIKI KAISHA, priority 2013, dated 2016).
# Molecular target: T1, human NaPi-IIb (Homo sapiens, UniProt O95436)
# T1 construct: expressed in transfected cells
# T1 sequence (O95436 1-690): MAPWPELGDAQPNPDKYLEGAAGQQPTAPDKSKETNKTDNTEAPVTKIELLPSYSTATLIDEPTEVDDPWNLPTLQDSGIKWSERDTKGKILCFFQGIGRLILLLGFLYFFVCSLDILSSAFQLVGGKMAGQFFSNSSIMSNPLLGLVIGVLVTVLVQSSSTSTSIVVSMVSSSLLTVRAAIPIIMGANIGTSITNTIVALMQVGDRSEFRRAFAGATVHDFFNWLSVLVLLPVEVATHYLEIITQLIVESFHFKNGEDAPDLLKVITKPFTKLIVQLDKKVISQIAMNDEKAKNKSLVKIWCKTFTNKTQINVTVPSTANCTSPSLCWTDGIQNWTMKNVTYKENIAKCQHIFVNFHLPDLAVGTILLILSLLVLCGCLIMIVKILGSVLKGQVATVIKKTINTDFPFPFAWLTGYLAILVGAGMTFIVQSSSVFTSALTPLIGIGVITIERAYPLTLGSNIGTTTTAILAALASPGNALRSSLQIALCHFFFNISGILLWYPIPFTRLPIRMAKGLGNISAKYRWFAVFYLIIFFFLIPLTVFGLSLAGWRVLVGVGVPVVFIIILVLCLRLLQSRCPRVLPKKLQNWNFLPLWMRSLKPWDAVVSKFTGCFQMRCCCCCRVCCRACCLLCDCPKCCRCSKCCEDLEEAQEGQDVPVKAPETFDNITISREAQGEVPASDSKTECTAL
# Assay: Inhibitory effect on 33PO4 uptake into human NaPi-IIb-expressing CHO cells
# Format: cell-based
# Conditions: read-out: IC50
# How it was run: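 Uptake of ³³PO4 was measured by scintillation counting after ice-cold buffer A washes. Cells were CHO stably expressing human NaPi-IIb, seeded overnight, and exposed to ³³PO4 in buffer A at room temperature.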
row,SMILES,IC50
1,C[C@]12CCCN1N(Cc1cc(F)ccc1F)C(=O)C(C(=O)Nc1cc(F)c(Br)c(F)c1)=C2O [Example 193],6.4 µM
2,"C[C@]12CCCN1N(Cc1cccc(F)c1F)C(=O)C(C(=O)Nc1ccc(C(F)(F)F)cc1-c1cnc(C#N)c([N+](=O)[O-])c1)=C2O [Example 99, (4aR)—N-[2-(6-Cyano-5-nitropyridin-3-yl)-4-(trifluoromethyl)phenyl]-1-[(2,3-difluorophenyl)methyl]-4-hydroxy-4a-methyl-2-oxo-6,7-dihydro-5H-pyrrolo[1,2-b]pyridazine-3-carboxamide]",4.3 µM
3,CN1[C@@H](C(C)(C)C)C(O)=C(C(=O)Nc2ccc(Cl)cc2-c2cc(C(F)(F)F)ncn2)C(=O)N1Cc1cccc(F)c1F [Example 237],12.8 µM
4,Cc1cccc(CN2C(=O)C(C(=O)Nc3ccc(C(F)(F)F)cc3-c3ccc(C(F)(F)F)nc3)=C(O)[C@@]3(C)CCCN23)c1F [Example 205],1.6 µM
5,C[C@]12CCCN1N(Cc1c(F)cc(CCCCCCCOC[C@H](O)[C@@H](O)CO)cc1F)C(=O)C(C(=O)Nc1ccc(C(F)(F)F)cc1-c1ccc(C(F)(F)F)nc1)=C2O [Example 125],1.3 µM
6,CN1N(Cc2ccc(OCCN3CCOCC3(C)C)c(F)c2F)C(=O)C(C(=O)Nc2ccc(C(F)(F)F)cc2-c2cc(C(F)(F)F)ncn2)=C(O)C12CCC2 [Example 341],7.6 µM
7,C[C@]12CCCN1N(Cc1cccc(F)c1F)C(=O)C(C(=O)Nc1ccc(Br)cc1)=C2O [Example 77],8.9 µM
8,C[C@]12CCCN1N(Cc1cccc(F)c1F)C(=O)C(C(=O)Nc1ccc(C(F)(F)F)cc1-c1cncc(C#N)c1)=C2O [Example 82],11.1 µM
9,C[C@]12CCCN1N(Cc1cccc(OC(F)(F)F)c1)C(=O)C(C(=O)Nc1ccc(C(F)(F)F)cc1-c1cc(C(F)(F)F)ncn1)=C2O [Example 189],5.5 µM
10,CN1N(Cc2ccc(OCCN3[C@@H]4COC[C@H]3C4)c(F)c2F)C(=O)C(C(=O)Nc2ccc(C(F)(F)F)cc2-c2cc(C(F)(F)F)ncn2)=C(O)C12CCC2 [Example 339],19.1 µM
11,C[C@]12CCCN1N(Cc1cccc(F)c1F)C(=O)C(C(=O)Nc1ccc(C(F)(F)F)cc1-c1cc(C#N)ncn1)=C2O [Example 100],6.7 µM
12,CN1N(Cc2ccc(OCCN3CCOCC3)c(F)c2F)C(=O)C(C(=O)Nc2ccc(Br)c(C(F)(F)F)n2)=C(O)C12CCCCC2 [Example 298],> 30 µM
13,CSc1ccc(-c2nc(C(F)(F)F)ccc2NC(=O)C2=C(O)[C@@]3(C)CCCN3N(Cc3cccc(F)c3F)C2=O)cn1 [Example 105],6.3 µM
14,C[C@]12CCCN1N(Cc1ccc(F)c(F)c1)C(=O)C(C(=O)Nc1ccc(C(F)(F)F)cc1-c1ccc(C(F)(F)F)nc1)=C2O [Example 170],2.2 µM
15,CN1N(Cc2cccc(F)c2F)C(=O)C(C(=O)Nc2ccc(C(F)(F)F)cc2-c2cc(C(F)(F)F)ncn2)=C(O)C12CCCC2 [Example 260],6.4 µM
16,"C[C@]12CCCN1N(Cc1ccc(Br)cc1F)C(=O)C(C(=O)Nc1cc(F)c(Br)c(F)c1)=C2O [Example 166, (4aR)—N-(4-Bromo-3,5-difluorophenyl)-1-[(4-bromo-2-fluorophenyl)methyl]-4-hydroxy-4a-methyl-2-oxo-6,7-dihydro-5H-pyrrolo[1,2-b]pyridazine-3-carboxamide]",10.5 µM
17,CN1N(Cc2cccc(F)c2F)C(=O)C(C(=O)Nc2cc(F)c(Br)c(F)c2)=C(O)C12CCC2 [Example 257],6 µM
18,C[C@]12CCCN1N(Cc1cccc(C#N)c1)C(=O)C(C(=O)Nc1ccc(C(F)(F)F)cc1-c1cc(C(F)(F)F)ncn1)=C2O [Example 179],18.9 µM
19,C[C@]12CCCN1N(Cc1c(F)cccc1Cl)C(=O)C(C(=O)Nc1ccc(C(F)(F)F)cc1-c1cc(C(F)(F)F)ncn1)=C2O [Example 210],1.7 µM
20,CN1N(Cc2ccc(OCCN3CCOCC3)c(F)c2F)C(=O)C(C(=O)Nc2ccc(C(F)(F)F)cc2-c2ncnc(C(F)(F)F)c2Cl)=C(O)C12CCC2 [Example 284],7.8 µM
21,CN1[C@@H](C(C)(C)C)C(O)=C(C(=O)Nc2cc(F)c(Br)c(F)c2)C(=O)N1Cc1cccc(F)c1F [Example 240],9.1 µM
22,C[C@]12CCCN1N(Cc1cccc(F)c1F)C(=O)C(C(=O)Nc1ccc(C(F)(F)F)cc1-c1cnc(Cl)nc1)=C2O [Example 67],2 µM
23,C[C@]12CCCN1N(Cc1cccc(F)c1F)C(=O)C(C(=O)Nc1ccc(C(F)(F)F)cc1-c1cc(Cl)cnc1Cl)=C2O [Example 84],7.9 µM
24,C[C@]12CCCN1N(Cc1ccccc1)C(=O)C(C(=O)Nc1ccc(C(F)(F)F)cc1-c1cc(C(F)(F)F)ncn1)=C2O [Example 188],6.1 µM
25,C[C@]12CCCN1N(Cc1ccc(F)cc1F)C(=O)C(C(=O)Nc1ccc(C(F)(F)F)cc1-c1ccc(C(F)(F)F)nc1)=C2O [Example 173],1.9 µM
26,C[C@]12CCCN1N(Cc1cccc(F)c1F)C(=O)C(C(=O)Nc1ccc(C(F)(F)F)cc1-c1ccc(C(F)(F)F)nc1)=C2O [Example 90],2.4 µM
27,C[C@]12CCCN1N(Cc1cc(F)cc(F)c1)C(=O)C(C(=O)Nc1ccc(C(F)(F)F)cc1-c1cc(C(F)(F)F)ncn1)=C2O [Example 213],6.4 µM
28,COCCOCCOCCCCCCCCN1C(=O)C(C(=O)Nc2ccc(C(F)(F)F)cc2-c2cc(C(F)(F)F)ncn2)=C(O)[C@@]2(C)CCCN12 [Example 236],24.7 µM
29,"Cc1ncc(-c2cc(C(F)(F)F)ccc2NC(=O)C2=C(O)[C@@]3(C)CCCN3N(Cc3cccc(F)c3F)C2=O)cc1C#N [Example 109, (4aR)—N-[2-(5-Cyano-6-methylpyridin-3-yl)-4-(trifluoromethyl)phenyl]-1-[(2,3-difluorophenyl)methyl]-4-hydroxy-4a-methyl-2-oxo-6,7-dihydro-5H-pyrrolo[1,2-b]pyridazine-3-carboxamide]",9.4 µM

# Same assay, conditions: read-out: IC50 against 33PO4 uptake into human NaPi-IIb-expressing cells
row,SMILES,IC50
1,CN1N(Cc2ccc(OCCN3C4CCC3COC4)c(F)c2F)C(=O)C(C(=O)Nc2ccc(C(F)(F)F)cc2-c2cc(C(F)(F)F)ncn2)=C(O)C12CCCC2 [Example 367],14 µM
2,CN1N(Cc2ccc(OCCCOCCO)c(F)c2F)C(=O)C(C(=O)Nc2ccc(C(F)(F)F)cc2-c2cc(C(F)(F)F)ncn2)=C(O)C12CCCC2 [Example 395],15.2 µM
3,COC(=O)[C@@H]1CCCN1CCOc1ccc(CN2C(=O)C(C(=O)Nc3ccc(C(F)(F)F)cc3-c3cc(C(F)(F)F)ncn3)=C(O)C3(CCC3)N2C)c(F)c1F [Example 355],15 µM
4,CN1N(Cc2ccc(OCCCCOCCO)c(F)c2F)C(=O)C(C(=O)Nc2ccc(C(F)(F)F)cc2-c2cc(C(F)(F)F)ncn2)=C(O)C12CCCC2 [Example 396],9.5 µM
5,COCCN1CCN(CCOc2ccc(CN3C(=O)C(C(=O)Nc4ccc(C(F)(F)F)cc4-c4cc(C(F)(F)F)ncn4)=C(O)C4(CCCC4)N3C)c(F)c2F)CC1 [Example 377],8.7 µM
6,CN1N(Cc2ccc(OCCNCCS(=O)(=O)O)c(F)c2F)C(=O)C(C(=O)Nc2ccc(C(F)(F)F)cc2-c2cc(C(F)(F)F)ncn2)=C(O)C12CCCC2 [Example 435],17.1 µM
7,CN1N(Cc2ccc(OCCCCOC[C@H](O)CO)c(F)c2F)C(=O)C(C(=O)Nc2ccc(C(F)(F)F)cc2-c2cc(C(F)(F)F)ncn2)=C(O)C12CCCC2 [Example 393],8.1 µM
8,CN1N(Cc2ccc(OCCCCCOC[C@H](O)CO)c(F)c2F)C(=O)C(C(=O)Nc2ccc(C(F)(F)F)cc2-c2ccc(C(F)(F)F)nc2)=C(O)C12CCCC2 [Example 388],6.9 µM
9,CN1N(Cc2ccc(OCCCOCCCO)c(F)c2F)C(=O)C(C(=O)Nc2ccc(C(F)(F)F)cc2-c2cc(C(F)(F)F)ncn2)=C(O)C12CCCC2 [Example 398],9.9 µM
10,CN1N(Cc2ccc(OCCCCCOCCCO)c(F)c2F)C(=O)C(C(=O)Nc2ccc(C(F)(F)F)cc2-c2cc(C(F)(F)F)ncn2)=C(O)C12CCCC2 [Example 400],9.2 µM
11,CN1N(Cc2ccc(NCCN3CCOCC3)c(F)c2F)C(=O)C(C(=O)Nc2ccc(C(F)(F)F)cc2-c2cc(C(F)(F)F)ncn2)=C(O)C12CCCC2 [Example 447],15.8 µM
12,CN1N(Cc2ccc(OCCN3CCN(S(C)(=O)=O)CC3)c(F)c2F)C(=O)C(C(=O)Nc2ccc(C(F)(F)F)cc2-c2cc(C(F)(F)F)ncn2)=C(O)C12CCCC2 [Example 379],27.3 µM
13,COCCN(CCOC)CCOc1ccc(CN2C(=O)C(C(=O)Nc3ccc(C(F)(F)F)cc3-c3cc(C(F)(F)F)ncn3)=C(O)C3(CCC3)N2C)c(F)c1F [Example 348],26.1 µM
14,CN1N(Cc2ccc(OCCN3CC(F)(F)C3)c(F)c2F)C(=O)C(C(=O)Nc2ccc(C(F)(F)F)cc2-c2cc(C(F)(F)F)ncn2)=C(O)C12CCCC2 [Example 369],21.8 µM
15,CN1N(Cc2ccc(OCCN3CCN(S(C)(=O)=O)CC3)c(F)c2F)C(=O)C(C(=O)Nc2ccc(C(F)(F)F)cc2-c2cc(C(F)(F)F)ncn2)=C(O)C12CCC2 [Example 363],28 µM
16,CCN(CCN(C)CCOC)c1ccc(CN2C(=O)C(C(=O)Nc3ccc(C(F)(F)F)cc3-c3cc(C(F)(F)F)ncn3)=C(O)C3(CCCC3)N2C)c(F)c1F [Example 443],8.9 µM
